Source: publication PMC7562898, “Homogeneous single-label cGMP detection platform for the functional study of nitric oxide-sensitive (soluble) guanylyl cyclases and cGMP-specific phosphodiesterases” (Scientific Reports, 2020)
Like-named read-outs stand apart in the source and are kept apart here. One block for each compound: values may come before it.

Key:
[1] = system: monoclonal cGMP-specific antibody; test: Homogeneous competitive QRET cGMP detection with cGMP-specific antibody; type: binding; conditions: for recognition of the nucleotide by the antibody: nucleotide titration, data not shown
Experimental: All biochemical assays were performed in a 10 µL final volume using triplicate reactions and three individual experiments unless otherwise indicated. The non-enzymatic and real-time cGMP assays were performed in assay buffer 1 (20 mM HEPES, pH 7.5, 1 mM MgCl2, 0.005% γ-globulins, 0.01% Triton X-100), enzymatic end-point assays in assay buffer 2 (assay buffer 1 without 0.01% Triton X-100), and detection components ([…], antibody, and MT2) were added in the stop buffer (assay buffer 1 supplemented with 10 mM EDTA instead of 1 mM MgCl2). In all buffers, sGMP was equally detected. Buffers for end-point assay were optimized to avoid the used of Triton X-100 during the enzymatic sGC reaction, avoiding the progressive loss of heme, and by using the EDTA in stop buffer to chelate the enzyme essential MgCl2.
After initial assays, cGMP detection protocol was tested in cGMP titration with two antibody (2 ng/well and 4 ng/well) and two Eu(III)-cGMP (1 nM and 5 nM) concentrations. Titrated cGMP (0–250 µM) was added in 5 µL volume and detection solution containing Eu(III)-cGMP, cGMP antibody, and MT2 (1.2 µM or 2.2 µM) in 5 µL volume. Similar titrations were performed with other nucleotides (cAMP, GTP, ATP, ADP, and GMP). cGMP was also titrated in the presence of 0.5 mM GTP. In all of these assays, background controls were performed with six repeats and TRF-signals were monitored multiple times between 5 to 90 min to determine the TRF-signal stability.
Assays were performed with Eu(III)-cGMP concentration dependent individually fixed MT2 (1.2–3.2 µM) quencher concentration. TRF-signals were measured and the Eu(III)-cGMP equilibrium dissociation constant (Kd) for the cGMP-specific antibody was determined using linearized Cheng-Prusoff Equation[59].

sGC [2] = target: T1, sGC (Homo sapiens, UniProt Q02108+Q02153); parameters: method as in PMID 26777256; conditions: cited from earlier work
T1 construct: Full-length sGC was purified from Sf9 cells as described previously; made in house; host or cells: Sf9 cells
T1 sequence (Q02108 1-690): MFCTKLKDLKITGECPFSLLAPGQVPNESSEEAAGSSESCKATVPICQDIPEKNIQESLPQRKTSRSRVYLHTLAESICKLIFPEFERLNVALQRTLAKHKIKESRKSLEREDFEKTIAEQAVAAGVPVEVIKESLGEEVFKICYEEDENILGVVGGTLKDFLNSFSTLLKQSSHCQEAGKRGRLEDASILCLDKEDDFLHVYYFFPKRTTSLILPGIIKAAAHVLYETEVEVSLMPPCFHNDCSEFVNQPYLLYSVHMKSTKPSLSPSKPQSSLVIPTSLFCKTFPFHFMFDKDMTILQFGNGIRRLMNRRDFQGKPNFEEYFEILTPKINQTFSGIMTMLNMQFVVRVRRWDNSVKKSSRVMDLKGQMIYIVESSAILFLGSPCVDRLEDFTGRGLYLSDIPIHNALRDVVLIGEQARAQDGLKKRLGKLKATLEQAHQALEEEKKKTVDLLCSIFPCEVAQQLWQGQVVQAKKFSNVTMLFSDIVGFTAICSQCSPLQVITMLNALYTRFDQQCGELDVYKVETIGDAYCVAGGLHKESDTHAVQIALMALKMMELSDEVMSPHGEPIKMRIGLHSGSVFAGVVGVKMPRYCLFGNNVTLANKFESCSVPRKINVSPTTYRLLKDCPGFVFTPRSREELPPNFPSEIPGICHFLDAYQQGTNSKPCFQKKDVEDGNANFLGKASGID
T1 sequence (Q02153 1-619): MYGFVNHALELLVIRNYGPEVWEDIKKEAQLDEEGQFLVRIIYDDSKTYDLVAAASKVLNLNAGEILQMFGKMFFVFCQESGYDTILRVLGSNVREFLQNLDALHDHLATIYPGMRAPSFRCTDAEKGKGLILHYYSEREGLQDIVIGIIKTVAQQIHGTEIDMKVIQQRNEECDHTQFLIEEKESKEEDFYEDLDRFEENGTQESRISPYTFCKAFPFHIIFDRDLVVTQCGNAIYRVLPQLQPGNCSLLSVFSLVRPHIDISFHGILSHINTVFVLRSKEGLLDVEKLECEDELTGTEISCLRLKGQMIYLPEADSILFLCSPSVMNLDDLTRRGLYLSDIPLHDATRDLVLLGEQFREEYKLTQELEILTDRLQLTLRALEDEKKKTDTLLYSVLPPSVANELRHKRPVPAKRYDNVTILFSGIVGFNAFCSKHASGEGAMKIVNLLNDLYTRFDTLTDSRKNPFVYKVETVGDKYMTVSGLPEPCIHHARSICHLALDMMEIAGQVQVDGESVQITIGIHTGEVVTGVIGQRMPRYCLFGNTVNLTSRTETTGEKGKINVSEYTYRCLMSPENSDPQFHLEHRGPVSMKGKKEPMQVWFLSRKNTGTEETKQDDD

[3] = system: PDEs in mouse brain homogenate; test: cGMP hydrolysis (PDE activity) in mouse brain homogenate; type: biochemical; conditions: 0.1 mg/ml homogenate, 50 µM cGMP, 15 min at 37 °C, 3 µM MT2; read-out: apparent IC50 of cGMP hydrolysis in mouse brain homogenate
Experimental: PDE inhibitors with varying specificity profile, BAY73-6691, sildenafil, and IBMX (0–500 µM), were assayed in a high-speed supernatants of mouse brain homogenates. Reactions were performed in 5 µL volume in the presence of 0.1 mg/ml of homogenate and 50 µM cGMP. After 15 min incubation at 37 °C, detection solution (0.4 µg/ml cGMP antibody, 5 nM Eu(III)-cGMP, and 3.0 µM MT2) was added and TRF-signals were recorded.

PDE5A = system: PDE5A; parameters: method as in PMID 10574925; conditions: read-out: Km of PDE5A for cGMP; cited from earlier work
sGC [4] = target: T1, sGC; test: sGC activity assay, endpoint QRET cGMP detection; type: biochemical; conditions: for EC50: 2 ng sGC, 0.5 mM GTP, 30 min at 37 °C, read-out: EC50 of concentration dependent sGC activation; for effect on sGC activity at fixed saturating concentration: 10 µM NS2028, 10 µM DEA-NO; for fold increase for cGMP compared to untreated sGC: 100 µM gemfibrozil or 10 µM DEA-NO
Experimental: Optimized cGMP detection platform was applied to all enzymatic assays. For non-stimulated conditions, purified sGC enzyme (0.04–276 ng/well) was incubated with or without 0.5 mM GTP in the assay buffer 2 for 10 to 45 min at 37 °C in 5 µL volume. The reaction was stopped by adding 5 µL of detection solution (0.4 µg/ml cGMP antibody, 5 nM Eu(III)-cGMP, and 2.2 µM MT2) containing EDTA. For NO stimulated sGC activity, the same reactions were performed in the presence of 10 or 100 µM DEA-NO added with GTP. DEA-NO was always prepared from a 100 mM stock solution in 10 mM NaOH, which was stored at − 80 °C. TRF-signals were always monitored multiple times between 5 to 90 min to determine the TRF-signal stability.
In assays where dose-dependent effect of three sGC activators, DEA-NO, YC-1, and riociguat, were tested, the compounds (0–100 µM) were incubated with 2 ng sGC. Reactions were initiated by adding 0.5 mM GTP to reach 5 µL volume and incubated for 30 min at 37 °C. Reactions were stopped by adding 5 µL of detection solution and TRF-signals were recorded. To evaluate the linearity of the cGMP production by sGC, 3 or 12 ng of sGC were used for resting conditions and 0.5 ng for 100 µM DEA-NO activated sGC. Assays were performed in separate plates and reactions were stopped at indicated time points (5–60 min), before TRF-signal monitoring as above.
For assays containing fixed concentration of sGC regulators, 5 ng of sGC was incubated with one, or the indicated combination of following molecules: 10 µM NS2028, 100 nM BAY58-2667, 100 µM gemfibrozil, 10 µM BAY41-2272, 100 µM Cbi, 10 µM DEA-NO or SNP with glutathione (100 µM each). 5 µL reactions containing 0.5 mM GTP were incubated for 10 min at 37 °C and stopped by adding the detection components. TRF-signals were recorded as described above.
Cell lysate interferences were evaluated in an endpoint assay with different amounts of sGC (0.008–166.7 ng) and 0.07 or 0.14 mg/ml of COS7 cell lysate. sGC/lysate mixture was supplemented with 0.5 mM GTP in the presence or absence of 10 µM DEA-NO, and 5 µL reaction was incubated for 10 min at 37 °C. Detection components were thereafter added and TRF-signals were monitored as above.
Reproducibility and HTS compatibility were determined by running Z’-factor assay using 24 sGC reactions with or without activity modulation in three consecutive days. Assays were performed with fixed sGC concentration (5 ng/well) and sGC activation was performed using gemfibrozil (100 µM) or DEA NONOate (10 µM). All assays were initiated by the addition of 0.5 mM GTP to obtain a final 5 µL reaction volume, 37 °C for 10 min. Detection solution was added and TRF-signals were monitored as previously. Z’-factors were calculated using sGC basal activity as negative and activated reactions (NO or gemfibrozil) as positive controls.
In parallel to all assays, changes in TRF-signal in response to different concentrations of exogenously added cGMP were recorded to generate a cGMP standard curve. The cGMP standard was created using 1:3 dilution series to maximize the linear part of the standard, which was used to calculate the amount of cGMP generated by sGC during the reaction. Only at the linear area, the TRF-signal relation to cGMP concentration can be determined.

Structure (SMILES): Nc1ncnc2c1ncn2[C@@H]1O[C@@H]2COP(=O)(O)O[C@H]2[C@H]1O [cAMP, cyclic adenosine monophosphate]
recognition of the nucleotide by the antibody [1]: could not be recognized by the antibody

Structure (SMILES): Nc1ncnc2c1ncn2[C@@H]1O[C@H](COP(=O)(O)OP(=O)(O)OP(=O)(O)O)[C@@H](O)[C@H]1O [ATP]
recognition of the nucleotide by the antibody [1]: could not be recognized by the antibody

Structure (SMILES): Nc1nc2c(ncn2[C@@H]2O[C@H](COP(=O)(O)OP(=O)(O)OP(=O)(O)O)[C@@H](O)[C@H]2O)c(=O)[nH]1 [GTP, guanosine triphosphate]
specificity of the antibody for cGMP over the nucleotide [1]: 1000 fold
Km (sGC [2]; NO-activated sGC, read-out: Km for GTP, NO-activated sGC): < 75 µM
Km (sGC [2]; resting sGC, read-out: Km for GTP, resting sGC): ~220 µM

Structure (SMILES): Nc1ncnc2c1ncn2[C@@H]1O[C@H](COP(=O)(O)OP(=O)(O)O)[C@@H](O)[C@H]1O [ADP]
recognition of the nucleotide by the antibody [1]: could not be recognized by the antibody

IC50 [3]: 81.3 ± 4.8 µM
Structure (SMILES): C[C@H](Cc1nc2c(cnn2-c2ccccc2Cl)c(=O)[nH]1)C(F)(F)F [BAY73-6691]

Structure (SMILES): Nc1nc2c(ncn2[C@@H]2O[C@@H]3COP(=O)(O)O[C@H]3[C@H]2O)c(=O)[nH]1 [cGMP, Cyclic 3´,5´-guanosine monophosphate]
EC50 ([1]; 1 nM Eu(III)-cGMP and 2 ng of antibody/well, read-out: EC50 value of cGMP titration (displacement of Eu(III)-cGMP from antibody)): 0.72 ± 0.07 µM
EC50 ([1]; 5 nM Eu(III)-cGMP and 4 ng of antibody/well, read-out: EC50 of cGMP titration (displacement of Eu(III)-cGMP from antibody)): 1.8 ± 0.22 µM
Km (PDE5A): ~2 µM

Structure (SMILES): CCN(CC)/[N+]([O-])=N/O.CCNCC [DEA-NO, diethylamine NONOate]
EC50 (sGC [4]): 0.93 ± 0.1 µM
effect on sGC activity at fixed saturating concentration (sGC [4]; 5 ng sGC, 10 min at 37 °C): largest increase in sGC activity
NO-stimulated sGC specific activity in the presence of COS7 lysate (sGC [4]; 10 µM DEA-NO, 5 ng sGC/well, 10 min at 37 °C, 0.14 mg/ml COS7 lysate): 19.3 ± 4.2 µmol/mg/min
NO-stimulated sGC specific activity (sGC [4]; 10 µM DEA-NO, 5 ng sGC/well, 10 min at 37 °C, buffer): 4.8 ± 1.0 µmol/min/mg
fold increase for cGMP compared to untreated sGC (sGC [4]; 5 ng sGC/well, 10 min at 37 °C): ~50 fold

EC50 (sGC [4]): 0.26 ± 0.1 µM
Structure (SMILES): COC(=O)N(C)c1c(N)nc(-c2nn(Cc3ccccc3F)c3ncccc23)nc1N [riociguat]

fold increase for cGMP compared to untreated sGC (sGC [4]; 5 ng sGC/well, 10 min at 37 °C): approximately 20 fold
Structure (SMILES): Cc1ccc(C)c(OCCCC(C)(C)C(=O)O)c1 [gemfibrozil]

IC50 [3]: 45.2 ± 6.8 µM
Structure (SMILES): CCCc1nn(C)c2c(=O)[nH]c(-c3cc(S(=O)(=O)N4CCN(C)CC4)ccc3OCC)nc12 [sildenafil]

effect on sGC activity at fixed saturating concentration (sGC [4]; 5 ng sGC, 10 min at 37 °C): no significant effect
effect on sGC activation when assayed together with BAY58-2667 or gemfibrozil (sGC [4]; 10 µM NS2028 with 100 nM BAY58-2667 or 100 µM gemfibrozil, 5 ng sGC, 10 min at 37 °C): increased the activation
Structure (SMILES): O=c1onc2n1-c1cc(Br)ccc1OC2 [NS2028, 8-bromo-4H-2,5-dioxa-3,9b-diaza-cyclopenta[a]naphthalen-1-one]

Structure (SMILES): OCc1ccc(-c2nn(Cc3ccccc3)c3ccccc23)o1 [YC-1, 3-(5′-hydroxymethyl-2′-furyl)-1-benzyl indazole]
EC50 (sGC [4]): 5.7 ± 1 µM

IC50 [3]: 9.9 ± 0.6 µM
Structure (SMILES): CC(C)Cn1c(=O)n(C)c(=O)c2[nH]cnc21 [IBMX, 3-isobutyl-1-methylxanthine]
